This test concerns the target human σ1 receptor (Homo sapiens, UniProt Q99720). In words: biochemical. Format: binding. On the set-up: μ and σ1 dual (binding to the σ1 receptor and the μ-opioid receptor expressed as Ki): key to the marks not given beside the values.
Sequence of human σ1 receptor (Q99720 whole entry): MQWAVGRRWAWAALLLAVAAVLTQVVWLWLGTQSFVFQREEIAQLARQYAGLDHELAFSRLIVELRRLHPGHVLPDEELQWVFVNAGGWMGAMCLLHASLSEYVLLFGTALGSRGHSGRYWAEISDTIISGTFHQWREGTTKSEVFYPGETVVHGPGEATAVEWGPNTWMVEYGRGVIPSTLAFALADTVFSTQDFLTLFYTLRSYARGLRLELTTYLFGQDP
For the compound `O=C(c1cccs1)N(CC1(N2CCN(Cc3ccccc3)CC2)CCOCC1)c1ccccn1` [Example 38, N-((4-(4-benzylpiperazin-1-yl)tetrahydro-2H-pyran-4-yl)methyl)-N-(pyridin-2-yl)thiophene-2-carboxamide], the “μ and σ1 dual (binding to the σ1 receptor and the μ-opioid receptor expressed as Ki)” value (shortened to “μ and σ1 dual”) was “++”.
For orientation: Ki means the dissociation constant of the complex between target and ligand, obtained from inhibition or displacement. The compound `CCC(=O)N(CC1(N2CCN(Cc3ncccc3F)CC2)CC1)c1ccccc1` [Example 120, N-((1-(4-((3-fluoropyridin-2-yl)methyl)piperazin-1-yl)cyclopropyl)methyl)-N-phenylpropionamide] came in with a Ki greater than 500 nM.
For the compound `CCC(=O)N(CC1(N2CCN(CC(C)C)CC2)CCOCC1)c1ncccc1C#N` [Example 62, N-(3-cyanopyridin-2-yl)-N-((4-(4-isobutylpiperazin-1-yl)tetrahydro-2H-pyran-4-yl)methyl)propionamide], the “μ and σ1 dual” value is on record as “++”.
The same measure, in the same setting: the same measure for `CCC(=O)N(CC1(N2CCN(C(C)COC)CC2)CCOCC1)c1cccc(C(F)(F)F)n1` (centres unmarked) [Example 112, N-((4-(4-(1-methoxypropan-2-yl)piperazin-1-yl)tetrahydro-2H-pyran-4-yl)methyl)-N-(6-(trifluoromethyl)pyridin-2-yl)propionamide]: “++”.
Compound `CCC(=O)N(CC1(N2CCN(CC(C)C)CC2)CCSCC1)c1cccc(C(F)(F)F)n1` [Example 204, N-((4-(4-isobutylpiperazin-1-yl)tetrahydro-2H-thiopyran-4-yl)methyl)-N-(6-(trifluoromethyl)pyridin-2-yl)propionamide] gave a Ki of less than 500 nM.
On the same count and under the same terms, the same measure for `CCC(=O)N(CC1(N2CCN(Cc3ccccc3)CC2)CCOCC1)c1ncccc1C(F)(F)F` [Example 59, N-((4-(4-benzylpiperazin-1-yl)tetrahydro-2H-pyran-4-yl)methyl)-N-(3-(trifluoromethyl)pyridin-2-yl)propionamide]: less than 500 nM.
Same read-out and setting: next, `CCC(=O)N(CC1(N2CCN(CC(C)C)CC2)CC1)c1cccc(C(F)(F)F)n1` [Example 123, N-((1-(4-isobutylpiperazin-1-yl)cyclopropyl)methyl)-N-(6-(trifluoromethyl)pyridin-2-yl)propionamide]: less than 100 nM.
Take `CCC(=O)N(CC1(N2CCN(Cc3ccccc3)CC2)CC1)c1ccc(C(F)(F)F)cn1` [Example 94, N-((1-(4-benzylpiperazin-1-yl)cyclopropyl)methyl)-N-(5-(trifluoromethyl)pyridin-2-yl)propionamide]: the “μ and σ1 dual” value is on record as “++”.
In the case of `CCC(=O)N(CC1(N2CCN(Cc3ccccn3)CC2)CC1)c1ccccc1` [Example 114, N-phenyl-N-((1-(4-(pyridin-2-ylmethyl)piperazin-1-yl)cyclopropyl)methyl)propionamide], the inhibitory constant (Ki) is less than 500 nM.
The same measure, in the same setting: the same measure for `CCC(=O)N(CC1(N2CCN(Cc3ccccc3)CC2)CCOCC1)c1nc(C(F)(F)F)ccc1C#N` [Example 60, N-((4-(4-benzylpiperazin-1-yl)tetrahydro-2H-pyran-4-yl)methyl)-N-(3-cyano-6-(trifluoromethyl)pyridin-2-yl)propionamide]: less than 500 nM.
Same read-out and setting: the same measure for `CCC(=O)N(CC1(N2CCN(CCN3CCOCC3)CC2)CCOCC1)c1cccc(C(F)(F)F)n1` [Example 184, N-((4-(4-(2-morpholinoethyl)piperazin-1-yl)tetrahydro-2H-pyran-4-yl)methyl)-N-(6-(trifluoromethyl)pyridin-2-yl)propionamide]: greater than 500 nM.
For `CCC(=O)N(CC1(N2CCN(Cc3ccccc3)CC2)CCOCC1)c1ccc(C(F)(F)F)nc1` [Example 11, N-((4-(4-benzylpiperazin-1-yl)tetrahydro-2H-pyran-4-yl)methyl)-N-(6-(trifluoromethyl)pyridin-3-yl)propionamide], the “μ and σ1 dual” value is “++”.
With `CCC(=O)N(CC1(N2CCN(Cc3ccccc3)CC2)CCOCC1)c1ccc(F)cc1` [Example 81, N-((4-(4-benzylpiperazin-1-yl)tetrahydro-2H-pyran-4-yl)methyl)-N-(4-fluorophenyl)propionamide], the Ki was less than 500 nM.
Take `CCC(=O)N(CC1(N2CCN(CCc3cccnc3)CC2)CCOCC1)c1cccc(C(F)(F)F)n1` [Example 201, N-((4-(4-(2-(pyridin-3-yl)ethyl)piperazin-1-yl)tetrahydro-2H-pyran-4-yl)methyl)-N-(6-(trifluoromethyl)pyridin-2-yl)propionamide]: the “μ and σ1 dual” value is listed as “++”.
Compound `CCC(=O)N(CC1(N2CCN(Cc3ccccc3)CC2)CCOC(C)(C)C1)c1ncccc1C(F)(F)F` (centres unmarked) [Example 67, N-((4-(4-benzylpiperazin-1-yl)-2,2-dimethyltetrahydro-2H-pyran-4-yl)methyl)-N-(3-(trifluoromethyl)pyridin-2-yl)propionamide] came in with a Ki of less than 500 nM.
Take `CCC(=O)N(CC1(N2CCN(CCOC(C)C)CC2)CCOC(C)(C)C1)c1ncccc1F` (centres unmarked) [Example 167, N-(3-fluoropyridin-2-yl)-N-((4-(4-(2-isopropoxyethyl)piperazin-1-yl)-2,2-dimethyltetrahydro-2H-pyran-4-yl)methyl)propionamide]: the Ki is less than 500 nM.
The same measure, in the same setting: next, `CCC(=O)N(CC1(N2CCN(CCc3ccncc3)CC2)CCOCC1)c1cccc(C(F)(F)F)n1` [Example 206, N-((4-(4-(2-(pyridin-4-yl)ethyl)piperazin-1-yl)tetrahydro-2H-pyran-4-yl)methyl)-N-(6-(trifluoromethyl)pyridin-2-yl)propionamide]: less than 500 nM.
On the same count and under the same terms, next, `CCC(=O)N(CC1(N2CCN(Cc3ccccc3)CC2)CC1)c1ccc(F)cn1` [Example 33, N-((1-(4-benzylpiperazin-1-yl)cyclopropyl)methyl)-N-(5-fluoropyridin-2-yl)propionamide]: less than 500 nM; `CCOCCN1CCN(C2(CN(C(=O)CC)c3cccc(C#N)n3)CCOC(C)(C)C2)CC1` (centres unmarked) [Example 171, N-(6-cyanopyridin-2-yl)-N-((4-(4-(2-ethoxyethyl)piperazin-1-yl)-2,2-dimethyltetrahydro-2H-pyran-4-yl)methyl)propionamide]: greater than 500 nM.
Consider `CCC(=O)N(CC(C)(C)N1CCN(CCc2ncccc2F)CC1)c1ccccc1F` [Example 71, N-(2-fluorophenyl)-N-(2-(4-(2-(3-fluoropyridin-2-yl)ethyl)piperazin-1-yl)-2-methylpropyl)propionamide], for which the “μ and σ1 dual” value is given as “++”.
Still for that read-out and setting: the same measure for `CCC(=O)N(CC(C)(C)N1CCN(CCc2ncccc2F)CC1)c1ccccc1` [Example 72, N-(2-(4-(2-(3-fluoropyridin-2-yl)ethyl)piperazin-1-yl)-2-methylpropyl)-N-phenylpropionamide]: “++”.
`CCC(=O)N(CC1(N2CCN(CC(C)(C)OC)CC2)CCOCC1)c1cccc(C(F)(F)F)n1` [Example 191, N-((4-(4-(2-Methoxy-2-methylpropyl)piperazin-1-yl)tetrahydro-2H-pyran-4-yl)methyl)-N-(6-(trifluoromethyl)pyridin-2-yl)propionamide] had a Ki greater than 500 nM.
As to `CCC(=O)N(CC1(N2CCN(Cc3ccc(NC(C)=O)cc3)CC2)CC1)c1ccccc1` [Example 115, N-((1-(4-(4-acetamidobenzyl)piperazin-1-yl)cyclopropyl)methyl)-N-phenylpropionamide], the “μ and σ1 dual” value was “++”.
Compound `CCC(=O)N(CC1(N2CCN(Cc3ccc(F)c(F)c3)CC2)CC1)c1ccccc1` [Example 117, N-((1-(4-(3,4-difluorobenzyl)piperazin-1-yl)cyclopropyl)methyl)-N-phenylpropionamide] gave a Ki of less than 100 nM.
Same read-out and setting: next, `CCC(=O)N(CC1(N2CCN(Cc3ccccc3)CC2)CC1)c1cccc(C#N)c1` [Example 96, N-((1-(4-benzylpiperazin-1-yl)cyclopropyl)methyl)-N-(3-cyanophenyl)propionamide]: less than 500 nM.
On the same count and under the same terms, the same measure for `CCC(=O)N(CC1(N2CCN(Cc3cncc(F)c3)CC2)CC1)c1ccccc1` [Example 122, N-((1-(4-((5-fluoropyridin-3-yl)methyl)piperazin-1-yl)cyclopropyl)methyl)-N-phenylpropionamide]: less than 500 nM.
For the compound `CCNC(=O)N(CC1(N2CCN(Cc3ccccc3)CC2)CCOCC1)c1ccccn1` [Example 49, 1-((4-(4-benzylpiperazin-1-yl)tetrahydro-2H-pyran-4-yl)methyl)-3-ethyl-1-(pyridin-2-yl)urea], the “μ and σ1 dual” value is “++”.
As for `CCC(=O)N(CC1(N2CCN(Cc3ccccc3)CC2)CCOCC1)c1ccccc1Cl` [Example 2, N-((4-(4-benzylpiperazin-1-yl)tetrahydro-2H-pyran-4-yl)methyl)-N-(2-chlorophenyl)propionamide], the inhibitory constant (Ki) was less than 100 nM.
Still for that read-out and setting: next, `CCC(=O)N(CC1(N2CCN(C(C(=O)OC)c3ccccc3)CC2)CCOCC1)c1ccccn1` (centres unmarked) [Example 180, methyl 2-phenyl-2-(4-(4-((N-(pyridin-2-yl)propionamido)methyl)tetrahydro-2H-pyran-4-yl)piperazin-1-yl)acetate]: greater than 500 nM.
`CCC(=O)N(CC1(N2CCN(Cc3ccccc3)CC2)CCOCC1)c1ccc(F)c(C#N)n1` [Example 61, N-((4-(4-benzylpiperazin-1-yl)tetrahydro-2H-pyran-4-yl)methyl)-N-(6-cyano-5-fluoropyridin-2-yl)propionamide]: the Ki was less than 500 nM.
Same read-out and setting: next, `CCOCCN1CCN(C2(CN(C(=O)CC)c3ncccc3F)CCOC(C)(C)C2)CC1` (centres unmarked) [Example 169, N-((4-(4-(2-ethoxyethyl)piperazin-1-yl)-2,2-dimethyltetrahydro-2H-pyran-4-yl)methyl)-N-(3-fluoropyridin-2-yl)propionamide]: greater than 500 nM; `CCC(=O)N(CC1(N2CCN(CCC(C)C)CC2)CCOCC1)c1cccc(C(F)(F)F)n1` [Example 137, N-((4-(4-isopentylpiperazin-1-yl)tetrahydro-2H-pyran-4-yl)methyl)-N-(6-(trifluoromethyl)pyridin-2-yl)propionamide]: less than 100 nM.
